Laboratory results from ChEMBL document CHEMBL1201862, “PubChem BioAssay data set” (2004).
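How tested: cells in 96-well plates exposed to compound for 48 hours at five concentrations. At the GI50, growth is halved.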 Active and inactive are the calls of the source. Rule as the data show it: active = GI50 up to about 1.1 µM and inactive = higher. Where a SMILES comes first, the peptide text is derived from it. The star is where a group is joined. Fmoc = O=C(OCC1c2ccccc2-c2ccccc21)*; OBn = c1ccc(CO*)cc1; tBu = CC(C)(C)*

Key:
Test in all cases: inhibition of tumour cell growth, NCI panel, 48 h
OVCAR-4 = system: OVCAR-4
OVCAR-8 = system: OVCAR-8
SK-MEL-5 = system: SK-MEL-5
T47D = system: T47D
SW-620 = system: SW-620
EKVX = system: EKVX
RXF 393 = system: RXF 393
BT-549 = system: BT-549
PC-3 = system: PC-3
A498 = system: A498
SK-OV-3 = system: SK-OV-3
M14 = system: M14
HOP-92 = system: HOP-92
MDA-MB-231 = system: MDA-MB-231
UACC-62 = system: UACC-62
HOP-62 = system: HOP-62
UACC-257 = system: UACC-257
NCI-H23 = system: NCI-H23
SK-MEL-2 = system: SK-MEL-2
Malme-3M = system: Malme-3M

Measured: GI50

Cc1occc1C(=S)Nc1ccc(Cl)c(/C=N/OC(C)C)c1
inactive: OVCAR-4 24.9 µM | OVCAR-8 22.8 µM | SK-MEL-5 19.9 µM | T47D 12.1 µM | SW-620 20.9 µM | EKVX 23 µM | RXF 393 21.3 µM | BT-549 18.2 µM | PC-3 24.9 µM | A498 19.2 µM | SK-OV-3 24.3 µM | M14 23.3 µM | HOP-92 16.1 µM | MDA-MB-231 16.4 µM | UACC-62 14.5 µM | HOP-62 25.2 µM | UACC-257 22 µM | NCI-H23 20.1 µM | SK-MEL-2 19.2 µM | Malme-3M 19.8 µM

CC(OC(C)(C)C)C(NC(=O)OCC1c2ccccc2-c2ccccc21)C(=O)NC(Cc1ccccc1)C(=O)OCc1ccccc1 (stereo not given) (Fmoc-Thr(tBu)-Phe-OBn; configuration not given here)
inactive: OVCAR-4 > 100 µM | OVCAR-8 > 100 µM | SK-MEL-5 > 100 µM | T47D > 76.7 µM | SW-620 > 100 µM | EKVX > 100 µM | RXF 393 > 100 µM | BT-549 > 100 µM | PC-3 > 100 µM | A498 > 100 µM | SK-OV-3 > 100 µM | M14 > 100 µM | HOP-92 > 21.2 µM | MDA-MB-231 > 48.4 µM | UACC-62 > 100 µM | HOP-62 > 93.8 µM | UACC-257 > 100 µM | NCI-H23 > 100 µM | SK-MEL-2 > 100 µM | Malme-3M > 100 µM
